≈ marks a conversion by molar mass, not a printed value.
Columns and labels:
[1] = Upregulation of utrophin transcription in mouse H2K cells after 48 hrs by luciferase reporter assay; assay type: functional, cell-based
[2] = Half life in human liver microsome by LC-MS/MS analysis; assay type: ADME; conditions: liver microsomes
[3] = Upregulation of utrophin mRNA expression in mouse H2K cells after 72 hrs by RT-PCR analysis relative to control; assay type: functional, cell-based
[4] = Aqueous solubility of the compound in 0.01 M phosphate buffered saline at pH 7.4 after 2 hrs by turbidimetric method; assay type: physicochemical
[5] = Upregulation of utrophin transcription in mouse H2K cells at 10 uM after 48 hrs by luciferase reporter assay relative to 2-(4-(diethylamino)phenyl)-6-methyl-2H-benzo[d][1,2,3]triazol-5-amine; assay type: functional, cell-based
[6] = Upregulation of utrophin transcription in mouse H2K cells at 3 uM after 48 hrs by luciferase reporter assay relative to 2-(4-(diethylamino)phenyl)-6-methyl-2H-benzo[d][1,2,3]triazol-5-amine; assay type: functional, cell-based

EC50 [1] [µM] | Structure (SMILES) | further results
> 30 | CS(=O)(=O)c1ccc2cn(-c3ccc(Cl)cc3)nc2c1 | –
1.73 | CC(C)C(=O)Nc1ccc2cn(-c3ccc(Cl)cc3)nc2c1 | half-life [2]: 3.3 h; Activity [3]: 138%; solubility kinetic at 2 h [4]: 3 µM (≈ 0.941 µg/mL)
> 30 | CCS(=O)(=O)c1ccc2nn(-c3ccc(Cl)cc3)nc2c1 | –
> 30 | Nc1ccc2nn(-c3ccc(Cl)cc3)nc2c1 | –
11.7 | CS(=O)(=O)c1ccc2nn(-c3ccc(Cl)cc3)nc2c1 | –
1.8 | CC(=O)Nc1ccc2nn(-c3ccc(Cl)cc3)nc2c1 | –
> 30 | CCS(=O)(=O)c1ccc2cn(-c3ccc(Cl)cc3)nc2c1 | –

The remaining lines, values behind:

Structure (SMILES) | EC50 [1] [µM] | further results
CCN(CC)c1ccc(-n2nc3cc(C)c(NC(=O)C(C)C)cc3n2)cc1 | > 30 | –
Cc1cc2nn(-c3ccc(Cl)cc3)nc2cc1NC(=O)C(C)C | > 30 | –
Cc1cc2nn(-c3ccc(Cl)cc3)nc2cc1NC(=O)c1cccnc1 | 3.07 | –
CCC(=O)Nc1cc2nn(-c3ccc(N(CC)CC)cc3)nc2cc1C | > 30 | –
CCN(CC)c1ccc(-n2nc3cc(C)c(NC(=O)c4ccco4)cc3n2)cc1 | > 30 | –
CC(C)C(=O)Nc1ccc2nn(-c3ccc(Cl)cc3)nc2c1 | 0.76 | half-life [2]: 4.85 h; solubility kinetic at 2 h [4]: 1 µM (≈ 0.315 µg/mL)
CCN(CC)c1ccc(-n2nc3ccc(N)cc3n2)cc1 | 0.7 | –
CCS(=O)(=O)c1ccc2nn(-c3ccc(Cl)c(Cl)c3)nc2c1 | – | Activity [5]: 52%
CCS(=O)(=O)c1ccc2nn(-c3ccc4ccccc4c3)nc2c1 | – | Activity [6]: 73%
CS(=O)(=O)c1ccc2nn(-c3ccc4ccccc4c3)nc2c1 | – | Activity [6]: 63%
CC(C)C(=O)Nc1ccc2nn(-c3ccc(Cl)c(Cl)c3)nc2c1 | – | Activity [6]: 87%
CC(C)S(=O)(=O)c1ccc2cn(-c3ccc(Cl)cc3)nc2c1 | – | Activity [5]: 54%
CCS(=O)(=O)c1ccc2oc(-c3ccc4ccccc4c3)nc2c1 [EZUTROMID] | 1.8 | –

Source: ChEMBL document CHEMBL1806483, “Discovery and SAR of 2-arylbenzotriazoles and 2-arylindazoles as potential treatments for Duchenne muscular dystrophy” (Bioorg Med Chem Lett, 2011)
